Values belong to the compound of their own block, whether it stands above or below them.
Legend:
recombinant human PDE4 = settings: reported value; read-out: IC50 with respect to recombinant human PDE4; cited from earlier work
serum TNFα = assay: Combined mouse endotoxin-stimulated TNFα release assay (serum TNFα); type: in vivo, female Balb/c mice; settings: LPS mouse model
Method: The purpose of this study was to determine the efficacy of PDE4 inhibitors in vivo in an LPS mouse model together with a determination with respect to central nervous system (CNS) side-effects manifested by a decrease in spontaneous mobility. The test animals were female Balb/c mice, having an average weight of about 20 g. The PDE4 inhibitors, formulated in 30% Cremophor® EL, were administered via intraperitoneal (i.p.) injections at doses of 0.1, 1.0, 10.0, and 100 mg/kg. Individual dose volumes (about […]) were adjusted based on the body weights measured. One hour later, 5 mg/kg LPS in a final volume of 200 μL was injected via the tail vein to each animal. Ninety minutes following the LPS treatment, the animals were bled and serum samples were collected before being stored at −70° C. until assayed. For efficacy determination, the serum samples were diluted two-fold and TNFα levels were determined using the CYTOSCREEN® Immunoassay Kit (Biosource International) The data were averaged between triplicate sample subjects for each of the tested compounds.

spontaneous mobility = assay: Locomotor activity / sedative side-effect visual scoring; type: in vivo, female Balb/c mice; parameters: key: Vehicle control animals were rated a single “+”; animals that were effectively immobilized and stretched out on the bottom of the cage with little detectable movement were rated as “++++.”; settings: 10 mg/kg i.p., mice
Method: The purpose of this study was to determine the efficacy of PDE4 inhibitors in vivo in an LPS mouse model together with a determination with respect to central nervous system (CNS) side-effects manifested by a decrease in spontaneous mobility.
The test animals were female Balb/c mice, having an average weight of about 20 g. The PDE4 inhibitors, formulated in 30% Cremophor® EL, were administered via intraperitoneal (i.p.) injections at doses of 0.1, 1.0, 10.0, and 100 mg/kg. Individual dose volumes (about […]) were adjusted based on the body weights measured. One hour later, 5 mg/kg LPS in a final volume of 200 μL was injected via the tail vein to each animal. Ninety minutes following the LPS treatment, the animals were bled and serum samples were collected before being stored at −70° C. until assayed.
For side-effect profiling, a subjective visual scoring system was utilized at 5 min and 20min after administration of PDE4 inhibitors. […] In this instance, the subjects could be monitored continuously over pre-set intervals.
Movement of the X-Y plane, or rearing up on the hind legs, was quantified by counting the number of “light-beam” crosses per unit of time. […] The quantitative scoring correlated well with the subjective measurements described above.

human recombinant PDE4 = biological target: T1, human recombinant PDE4 (Homo sapiens, UniProt Q07343); assay: Inhibition of human recombinant PDE4 (IC50); type: biochemical
T1 construct: made in house; host or cells: Saccharomyces cerevisiae BJ2-54 (strain YI23 harboring HDUN2.32, if PDE4B)

[1] = tested on: human peripheral blood lymphocytes; assay: Lipopolysaccharide-stimulated TNFα release from human peripheral blood lymphocytes; type: cell-based; settings: for EC50: Homo sapiens, Lymphocyte, LPS-stimulated TNFα release, read-out: PBL/TNFα EC50
Method: The compounds of structural formulae (I) and (II) also were tested for an ability to reduce TNFα secretion in human peripheral blood lymphocytes. The ability to reduce TNFα secretion is related to the EC50 values (i.e., the effective concentration of the compound capable of inhibiting 50% of the total TNFα). To assess the ability of a compound to reduce TNFα secretion in human peripheral blood lymphocytes (PBL), the following tests were performed. […] Heparinized blood (approximately 30 mL) drawn from human volunteers was mixed 1:1 with Dulbecco's modified phosphate-buffered saline. This mixture was mixed 1:1 with HISTOPAQUE and centrifuged at 1,500 rpm at room temperature without braking in the swinging bucket of a Beckman model TJ6 centrifuge. Erythrocytes were centrifuged to the bottom of the tubes, and serum remained at the surface of the tubes. A layer containing lymphocytes sedimented between the serum and HISTOPAQUE® layers, and was removed by aspiration to a fresh tube. The cells were quantified and adjusted to 3×10^6 cells/mL and a 100 μL aliquot is placed into the wells of a 96 well plate. Test compounds and RPMI media (Gibco/BRL Life Sciences) are added to each of the wells 15 minutes prior to addition of bacterial LPS ([…]). The mixture was allowed to incubate for 20 hours at 37° C. in a humidified chamber. The cells then were separated by centrifuging at 800 rpm for 5 minutes at room temperature. An aliquot of 80 µL of supernatant was transferred to a new plate or determination of TNFα concentration. TNFα protein in the cell supernatant fluids was measured using a commercially available enzyme-linked immunosorbent assay (ELISA) (CYTOSCREEN® Immunoassay Kit from Biosource International). The cell-based assay provided the following results for various compounds of the present invention. The EC50 values (i.e., effective concentration of the compound capable of inhibiting 50% of the total TNFα ) illustrate the ability of the present compounds to inhibit LPS-stimulated TNFα release from human PBL.

PDE7 = biological target: T2, PDE7 (Homo sapiens, UniProt Q13946); assay: PDE inhibition, PDE7; type: biochemical
T2 construct: made in house; host or cells: Saccharomyces cerevisiae BJ2-54

PDE1B = biological target: T3, PDE1B (Homo sapiens, UniProt Q01064); assay: PDE inhibition, PDE1B; type: biochemical
T3 construct: made in house; host or cells: Saccharomyces cerevisiae BJ2-54

PDE3A = biological target: T4, PDE3A (Homo sapiens, UniProt Q14432); assay: PDE inhibition, PDE3A; type: biochemical
T4 construct: Plasmid pBB-PDE3A contained the complete open reading frame of PDE3A; made in house; host or cells: baculovirus-infected Sf9 cells (washed 100,000 x g pellet, not purified)

human recombinant PDE4B = biological target: T5, human recombinant PDE4B (Homo sapiens, UniProt Q07343); assay: PDE inhibition, PDE4B; type: biochemical
T5 construct: made in house; host or cells: Saccharomyces cerevisiae, strain YI23 harboring HDUN2.32

PDE5 = biological target: T6, PDE5 (Homo sapiens, UniProt O76074); assay: PDE inhibition, PDE5; type: biochemical
T6 construct: made in house; host or cells: Saccharomyces cerevisiae BJ2-54

PDE1A = biological target: T7, PDE1A (Homo sapiens, UniProt P54750); assay: PDE inhibition, PDE1A; type: biochemical
T7 construct: contained the complete open reading frame of PDE1A3; made in house; host or cells: baculovirus-infected Sf9 cells

PDE1C = biological target: T8, PDE1C (Homo sapiens, UniProt Q14123); assay: PDE inhibition, PDE1C; type: biochemical
T8 construct: Plasmid Hcam3aBB contained the complete open reading frame of PDE1C3; made in house; host or cells: baculovirus-infected Sf9 cells

PDE2 = biological target: T9, PDE2 (Homo sapiens, UniProt O00408); assay: PDE inhibition, PDE2; type: biochemical
T9 construct: made in house; host or cells: Saccharomyces cerevisiae, strain YI34
T9 sequence (O00408 whole entry): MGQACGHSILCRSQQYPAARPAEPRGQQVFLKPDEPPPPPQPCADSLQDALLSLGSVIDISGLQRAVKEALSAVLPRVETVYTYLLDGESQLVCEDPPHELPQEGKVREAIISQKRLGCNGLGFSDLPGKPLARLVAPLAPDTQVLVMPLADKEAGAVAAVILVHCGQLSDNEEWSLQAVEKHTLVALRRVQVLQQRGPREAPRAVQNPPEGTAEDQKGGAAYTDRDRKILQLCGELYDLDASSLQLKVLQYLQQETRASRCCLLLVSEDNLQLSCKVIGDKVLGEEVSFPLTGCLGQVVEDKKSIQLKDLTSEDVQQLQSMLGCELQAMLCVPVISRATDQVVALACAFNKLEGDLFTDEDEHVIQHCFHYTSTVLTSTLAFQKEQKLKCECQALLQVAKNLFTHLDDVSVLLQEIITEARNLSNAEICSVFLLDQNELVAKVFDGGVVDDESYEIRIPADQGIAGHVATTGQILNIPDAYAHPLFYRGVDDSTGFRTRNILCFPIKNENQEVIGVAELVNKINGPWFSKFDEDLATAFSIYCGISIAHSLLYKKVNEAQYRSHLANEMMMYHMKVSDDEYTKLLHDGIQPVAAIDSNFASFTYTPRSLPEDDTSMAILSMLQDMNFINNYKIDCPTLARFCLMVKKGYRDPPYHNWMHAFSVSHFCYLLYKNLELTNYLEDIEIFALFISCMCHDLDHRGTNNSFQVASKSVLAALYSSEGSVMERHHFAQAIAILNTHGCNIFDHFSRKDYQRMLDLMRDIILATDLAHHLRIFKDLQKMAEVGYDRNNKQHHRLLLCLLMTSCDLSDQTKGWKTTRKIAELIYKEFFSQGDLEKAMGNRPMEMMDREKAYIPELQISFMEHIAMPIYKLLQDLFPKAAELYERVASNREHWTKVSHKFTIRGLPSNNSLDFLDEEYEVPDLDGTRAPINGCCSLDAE

T1 sequence (Q07343 1-564 isoform Q07343-2): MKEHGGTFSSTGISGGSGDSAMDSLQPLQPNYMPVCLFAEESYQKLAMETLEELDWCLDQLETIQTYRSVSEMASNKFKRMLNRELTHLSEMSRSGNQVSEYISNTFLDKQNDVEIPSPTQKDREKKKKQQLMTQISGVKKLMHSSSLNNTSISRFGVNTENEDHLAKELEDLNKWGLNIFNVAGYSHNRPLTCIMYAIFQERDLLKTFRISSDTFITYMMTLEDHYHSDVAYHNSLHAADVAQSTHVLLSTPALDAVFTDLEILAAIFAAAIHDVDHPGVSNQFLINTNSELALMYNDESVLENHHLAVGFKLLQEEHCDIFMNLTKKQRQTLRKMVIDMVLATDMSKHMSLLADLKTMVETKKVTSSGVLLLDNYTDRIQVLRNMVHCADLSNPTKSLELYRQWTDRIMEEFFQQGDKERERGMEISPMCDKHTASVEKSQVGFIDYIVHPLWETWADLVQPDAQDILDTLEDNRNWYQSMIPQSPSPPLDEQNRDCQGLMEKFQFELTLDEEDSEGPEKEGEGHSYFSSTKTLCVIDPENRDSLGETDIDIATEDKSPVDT
T2 sequence (Q13946 whole entry): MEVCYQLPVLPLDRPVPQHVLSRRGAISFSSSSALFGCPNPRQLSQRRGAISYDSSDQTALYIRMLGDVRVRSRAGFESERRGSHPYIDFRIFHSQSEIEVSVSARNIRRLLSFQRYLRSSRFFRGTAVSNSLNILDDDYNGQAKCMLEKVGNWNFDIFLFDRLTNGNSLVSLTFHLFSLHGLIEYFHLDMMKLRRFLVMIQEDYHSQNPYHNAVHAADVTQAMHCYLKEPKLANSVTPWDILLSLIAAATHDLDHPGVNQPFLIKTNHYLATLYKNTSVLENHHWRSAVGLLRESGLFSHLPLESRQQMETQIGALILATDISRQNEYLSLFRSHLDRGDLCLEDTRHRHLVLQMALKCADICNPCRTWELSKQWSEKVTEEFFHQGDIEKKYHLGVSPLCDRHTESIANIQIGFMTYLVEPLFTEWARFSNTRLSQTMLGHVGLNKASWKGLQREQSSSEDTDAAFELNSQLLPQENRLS
T5 sequence (Q07343 whole entry): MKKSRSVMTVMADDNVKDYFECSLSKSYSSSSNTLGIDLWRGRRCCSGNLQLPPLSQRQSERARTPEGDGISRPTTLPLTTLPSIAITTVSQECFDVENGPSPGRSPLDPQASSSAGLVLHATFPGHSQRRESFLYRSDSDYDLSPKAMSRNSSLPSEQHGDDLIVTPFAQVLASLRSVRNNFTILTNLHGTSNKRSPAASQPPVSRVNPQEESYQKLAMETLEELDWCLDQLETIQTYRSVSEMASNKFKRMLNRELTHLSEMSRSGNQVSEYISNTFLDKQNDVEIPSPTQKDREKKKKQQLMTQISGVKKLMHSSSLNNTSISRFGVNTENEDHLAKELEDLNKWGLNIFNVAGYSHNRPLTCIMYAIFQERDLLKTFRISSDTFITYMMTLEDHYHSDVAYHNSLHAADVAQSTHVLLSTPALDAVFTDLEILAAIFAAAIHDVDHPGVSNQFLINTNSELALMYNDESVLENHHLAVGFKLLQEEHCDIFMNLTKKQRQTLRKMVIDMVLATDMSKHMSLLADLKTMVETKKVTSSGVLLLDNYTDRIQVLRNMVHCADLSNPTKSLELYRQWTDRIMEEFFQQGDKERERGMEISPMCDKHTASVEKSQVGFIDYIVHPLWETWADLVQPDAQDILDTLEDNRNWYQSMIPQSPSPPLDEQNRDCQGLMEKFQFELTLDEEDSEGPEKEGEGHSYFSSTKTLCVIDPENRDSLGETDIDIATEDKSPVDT
T4 sequence (Q14432 whole entry): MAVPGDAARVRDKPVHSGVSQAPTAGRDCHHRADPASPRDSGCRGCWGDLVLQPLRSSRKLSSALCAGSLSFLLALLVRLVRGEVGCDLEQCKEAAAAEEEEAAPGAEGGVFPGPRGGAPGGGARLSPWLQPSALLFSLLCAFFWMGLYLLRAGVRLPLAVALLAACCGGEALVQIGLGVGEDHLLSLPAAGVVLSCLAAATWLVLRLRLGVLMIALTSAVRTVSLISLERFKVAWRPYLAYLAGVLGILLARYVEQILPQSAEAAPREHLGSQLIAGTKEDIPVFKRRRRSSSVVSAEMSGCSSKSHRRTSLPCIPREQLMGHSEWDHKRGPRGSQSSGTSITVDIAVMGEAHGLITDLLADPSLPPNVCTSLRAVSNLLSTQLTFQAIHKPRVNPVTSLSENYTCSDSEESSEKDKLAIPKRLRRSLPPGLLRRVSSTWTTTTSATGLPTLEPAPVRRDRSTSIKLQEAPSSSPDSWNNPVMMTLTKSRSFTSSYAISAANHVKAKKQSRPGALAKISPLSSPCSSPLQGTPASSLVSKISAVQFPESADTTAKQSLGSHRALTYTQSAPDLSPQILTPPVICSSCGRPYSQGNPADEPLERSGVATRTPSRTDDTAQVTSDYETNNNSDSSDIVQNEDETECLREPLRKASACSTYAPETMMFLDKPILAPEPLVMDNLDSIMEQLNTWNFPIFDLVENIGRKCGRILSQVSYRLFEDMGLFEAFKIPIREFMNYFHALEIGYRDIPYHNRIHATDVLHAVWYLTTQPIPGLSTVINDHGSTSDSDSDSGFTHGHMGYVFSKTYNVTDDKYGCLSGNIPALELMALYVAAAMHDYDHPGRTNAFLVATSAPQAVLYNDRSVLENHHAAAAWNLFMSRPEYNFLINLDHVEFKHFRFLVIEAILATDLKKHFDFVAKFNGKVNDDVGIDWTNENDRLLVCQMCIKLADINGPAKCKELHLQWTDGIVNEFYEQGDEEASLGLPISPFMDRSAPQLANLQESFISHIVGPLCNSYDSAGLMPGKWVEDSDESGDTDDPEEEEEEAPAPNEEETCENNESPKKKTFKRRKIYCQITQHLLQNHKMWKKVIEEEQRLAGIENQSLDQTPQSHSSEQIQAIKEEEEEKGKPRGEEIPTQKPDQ

Structure (SMILES): COC(=O)N1CC(c2ccc(OC)c(OC3CCCC3)c2)C(C)(C(C)=O)C1 (stereo not drawn)
IC50 (recombinant human PDE4): ~0.002 µM

Structure (SMILES): COC(=O)N1C[C@@H](c2ccc(OC)c(OC3CCCC3)c2)[C@](C)(C(C)=O)C1 (relative stereo) [Comparative Example, trans-3-(3-cyclopentoxy-4-methoxyphenyl)-1-methoxycarbonyl-4-methyl-4-(methylcarbonyl)pyrrolidine, reference compound]
% TNFα Inhibition (serum TNFα; 1 mg/kg i.p.): 43%
% TNFα Inhibition (serum TNFα; 10 mg/kg i.p.): 100%
% TNFα Inhibition (serum TNFα; 100 mg/kg i.p.): 100%
Sedative Effect (spontaneous mobility): +

Structure (SMILES): CCOC(=O)c1cc(-c2ccccc2)n(-c2cccc(Cl)c2)c1C [Example 3, 1-(3-Chlorophenyl)-2-methyl-5-phenyl-1H-pyrrole-3-carboxylic acid ethyl ester]
IC50 (human recombinant PDE4): 0.2 µM
EC50 [1]: 1.5 µM

Structure (SMILES): CCOC(=O)c1cc(C)n(-c2ccccc2)c1-c1ccccc1 [Example 21, 5-Methyl-1,2-diphenyl-1H-pyrrole-3-carboxylic acid ethyl ester]
EC50 [1]: 10 µM

Structure (SMILES): COc1ccc(C2CNC(=O)C2)cc1OC1CCCC1 (stereo not drawn) [Rolipram, reference compound]
LPS-induced TNFα secretion from human lymphocytes ([1]; preliminary experiments): inhibit LPS-induced TNFα secretion from human lymphocytes in a dose-dependent fashion
IC50 (recombinant human PDE4): ~0.2 µM

Now from value to compound, other results behind:

IC50 (PDE7): 10.6 µM
IC50 (human recombinant PDE4): 0.15 µM
IC50 (PDE1B): 21 µM
IC50 (PDE3A): 89 µM
IC50 (human recombinant PDE4B): 0.15 µM
IC50 (PDE5): 12.5 µM
EC50 [1]: 0.87 µM
IC50 (PDE1A): 35.5 µM
IC50 (PDE1C): 21.8 µM
IC50 (PDE2): 4.5 µM
Structure (SMILES): CCOC(=O)c1cc(-c2ccccc2)n(-c2cccc([N+](=O)[O-])c2)c1C [Example 22, 2-Methyl-1-(3-nitrophenyl)-5-phenyl-1H-pyrrole-3-carboxylic acid ethyl ester]
% TNFα Inhibition (serum TNFα; 1 mg/kg i.p.): 13%
% TNFα Inhibition (serum TNFα; 10 mg/kg i.p.): 84%
% TNFα Inhibition (serum TNFα; 100 mg/kg i.p.): 100%

IC50 (human recombinant PDE4): 1.29 µM
EC50 [1]: 6.72 µM
Structure (SMILES): CCOC(=O)c1cc(C)n(-c2cccc(N)c2)c1-c1ccccc1 [Example 40, 1-(3-Aminophenyl)-5-methyl-2-phenyl-1H-pyrrole-3-carboxylic acid ethyl ester]

IC50 (human recombinant PDE4): 1.49 µM
EC50 [1]: 100 µM
Structure (SMILES): CCOC(=O)c1cc(C)n(-c2cccc(Cl)c2Cl)c1-c1ccccc1 [Example 42, 1-(2,3-Dichlorophenyl)-5-methyl-2-phenyl-1H-pyrrole-3-carboxylic acid ethyl ester]

IC50 (human recombinant PDE4): 15.6 µM
Structure (SMILES): Cc1cc(C(=O)O)c(-c2ccccc2)n1-c1cccc([N+](=O)[O-])c1 [Example 43, 5-Methyl-1-(3-nitrophenyl)-2-phenyl-1H-pyrrole-3-carboxylic acid]

IC50 (human recombinant PDE4): 194 µM
Structure (SMILES): CCOC(=O)c1cc(C)n(-c2cc(C(F)(F)F)cc(C(F)(F)F)c2)c1-c1ccccc1 [Example 45, 1-(3,5-Bis-trifluoromethylphenyl)-5-methyl-2-phenyl-1H-pyrrole-3-carboxylic acid ethyl ester]

IC50 (human recombinant PDE4): 8.7 µM
Structure (SMILES): CCOC(=O)c1cccc(-n2c(C)cc(C(=O)OCC)c2-c2ccccc2)c1 [Example 46, 1-(3-Ethoxycarbonylphenyl)-5-methyl-2-phenyl-1H-pyrrole-3-carboxylic acid ethyl ester]

Reference: patent publication US6372777B1, “Cyclic AMP-specific phosphodiesterase inhibitors” (ICOS Corporation, priority 1999, dated 2002)
